Values quoted from earlier work, collected in patent publication US20230233510A1, “CYSTEINE PROTEASE INHIBITORS FOR USE IN THE PREVENTION AND/OR TREATMENT OF CORONAVIRUS” (ALBERT-LUDWIGS-UNIVERSITÄT FREIBURG, priority 2020, published 2023).

Key:
SARS-CoV = conditions: HeLa cells expressing ACE2 and TMPRSS2
[1] = test system: human coronavirus NL63 (HCoV-NL63); conditions: HeLa cells expressing ACE2 and TMPRSS2

For `CN(C)C(=O)COC(=O)Cc1ccc(OC(=O)c2ccc(NC(=N)N)cc2)cc1` [camostat, (4-{2-[2-(Dimethylamino)-2-oxoethoxy]-2-oxoethyl}phenyl)(4-carbamimidamidobenzoate)], the block of infection (SARS-CoV) is listed as “partially blocked infection” and the block of infection [1] is listed as “partially blocked infection”.
